Patent US20250198442A1, “GAMMA POLYGLUTAMATED PEMETREXED AND USES THEREOF” (L.E.A.F. HOLDINGS GROUP LLC, priority 2020, published 2025)

Tests used:
HT-29 (colon cancer) = assay: CellTiter-Glo cell viability dose response, HT-29; assay type: cell-based, human; details: HT-29, 48 hours, rank among test articles
Method: (§1) The CTG assay uses luciferase as a readout.
(§2) Luciferase luminescence were recorded for each well.

[1] = system: NCI H2342 non-small cell lung cancer (NSCLC), adenocarcinoma subtype; assay: CellTiter-Glo cell viability dose response, NCI H2342; assay type: cell-based, human; details: H2342, 48 hours of treatment, rank among test articles
Method: as §1, §2

AML12 liver cells = assay: Toxicity to AML12 liver cells; assay type: cell-based; details: all doses studied (16 to 128 nM), 48 hours
Text: (§3) Methodologies used for cell line AML12 (non-cancerous liver cells) and CCD841 (non-cancerous colon epithelial cells) are similar to the methods used for cancer cells.

[2] = system: CCD841 colon epithelium cells; assay: Toxicity to CCD841 colon epithelium cells; assay type: cell-based; details: 16 nM, 32 nM, 64 nM and 128 nM, 48 hours
Text: as §3

Nc1nc(=O)c2c(CCc3ccc(C(=O)N[C@@H](CCC(=O)N[C@@H](CCC(=O)N[C@@H](CCC(=O)N[C@@H](CCC(=O)N[C@@H](CCC(=O)N[C@@H](CCC(=O)O)C(=O)O)C(=O)O)C(=O)O)C(=O)O)C(=O)O)C(=O)O)cc3)c[nH]c2[nH]1 [gG6, pemetrexed L-gamma hexaglutamate]
potency (cell viability) (HT-29 (colon cancer)): least potent | potency as measured by IC50 [1]: least potent

Nc1nc2[nH]cc(CCc3ccc(C(=O)N[C@@H](CCC(=O)O)C(=O)O)cc3)c2c(=O)[nH]1 [pemetrexed]
reduction in the AML12 liver cell counts (AML12 liver cells): approximately 40% | decrease in the number of CCD841 colon epithelium cells [2]: ≥ 50%
